According to PubChem BioAssay (NCI):
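Each compound was tested at five concentrations against cells in 96-well plates for 48 hours. The concentration for 50% growth inhibition is given as GI50. Definition used: TGI = concentration required for complete inhibition of growth.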

How the values were obtained:
Experiment in all cases: NCI anticancer screen, dose series, 48 h
786-0 renal = system: 786-0 renal
A498 renal = system: A498 renal
A549 NSCLC = system: A549 NSCLC
ACHN renal = system: ACHN renal
BT-549 breast = system: BT-549 breast
CAKI-1 renal = system: CAKI-1 renal
CCRF-CEM leukemia = system: CCRF-CEM leukemia
COLO 205 colon = system: COLO 205 colon
DU-145 prostate = system: DU-145 prostate
EKVX NSCLC = system: EKVX NSCLC
HCC-2998 colon = system: HCC-2998 colon
HCT-116 colon = system: HCT-116 colon
HCT-15 colon = system: HCT-15 colon
HL-60(TB) leukemia = system: HL-60(TB) leukemia
HOP-62 NSCLC = system: HOP-62 NSCLC
HOP-92 NSCLC = system: HOP-92 NSCLC
HS 578T breast = system: HS 578T breast
HT29 colon = system: HT29 colon
IGROV1 ovarian = system: IGROV1 ovarian
K-562 leukemia = system: K-562 leukemia
KM12 colon = system: KM12 colon
LOX IMVI melanoma = system: LOX IMVI melanoma
M14 melanoma = system: M14 melanoma
MALME-3M melanoma = system: MALME-3M melanoma
MCF7 breast = system: MCF7 breast
MDA-MB-231 breast = system: MDA-MB-231 breast
MDA-MB-435 = system: MDA-MB-435
MDA-MB-468 breast = system: MDA-MB-468 breast
MOLT-4 leukemia = system: MOLT-4 leukemia
NCI-H226 lung = system: NCI-H226 lung
NCI-H23 lung = system: NCI-H23 lung
NCI-H460 lung = system: NCI-H460 lung
NCI-H522 lung = system: NCI-H522 lung
NCI/ADR-RES ovarian = system: NCI/ADR-RES ovarian
OVCAR-3 ovarian = system: OVCAR-3 ovarian
OVCAR-4 ovarian = system: OVCAR-4 ovarian
OVCAR-5 ovarian = system: OVCAR-5 ovarian
OVCAR-8 ovarian = system: OVCAR-8 ovarian
PC-3 prostate = system: PC-3 prostate
RPMI-8226 leukemia = system: RPMI-8226 leukemia
RXF 393 renal = system: RXF 393 renal
SF-268 CNS = system: SF-268 CNS
SF-295 CNS = system: SF-295 CNS
SF-539 CNS = system: SF-539 CNS
SK-MEL-2 melanoma = system: SK-MEL-2 melanoma
SK-MEL-28 melanoma = system: SK-MEL-28 melanoma
SK-MEL-5 melanoma = system: SK-MEL-5 melanoma
SK-OV-3 ovarian = system: SK-OV-3 ovarian
SN12C renal = system: SN12C renal
SNB-19 CNS = system: SNB-19 CNS
SNB-75 CNS = system: SNB-75 CNS
SR leukemia = system: SR leukemia
SW-620 colon = system: SW-620 colon
T-47D breast = system: T-47D breast
TK-10 renal = system: TK-10 renal
U251 CNS = system: U251 CNS
UACC-257 melanoma = system: UACC-257 melanoma
UACC-62 melanoma = system: UACC-62 melanoma
UO-31 renal = system: UO-31 renal

`CS(=O)(=O)Nc1cc(-c2ccc3ncnc(N4CCc5cc(F)c(Cl)cc54)c3c2)cnc1Cl` gave a GI50 (786-0 renal) of 1.64 µM, a TGI (786-0 renal) of 27 µM and a GI50 (A498 renal) of 0.64 µM. For the same compound, the TGI (A498 renal) was 3.54 µM, the GI50 (A549 NSCLC) was 1.64 µM and the TGI (A549 NSCLC) was 8.67 µM. The GI50 (ACHN renal) was 1.66 µM, the TGI (ACHN renal) was > 100 µM and the GI50 (BT-549 breast) was 1.48 µM. The TGI (BT-549 breast) was 5.11 µM, the GI50 (CAKI-1 renal) was 0.748 µM and the TGI (CAKI-1 renal) was 7.32 µM. For the same compound, the GI50 (CCRF-CEM leukemia) was 1.84 µM, the TGI (CCRF-CEM leukemia) was > 100 µM and the GI50 (COLO 205 colon) was 1.61 µM. The TGI (COLO 205 colon) was 9.61 µM, the GI50 (DU-145 prostate) was 1.67 µM and the TGI (DU-145 prostate) was 19.5 µM. For the same compound, the GI50 (EKVX NSCLC) was 0.559 µM, the TGI (EKVX NSCLC) was 3.63 µM and the GI50 (HCC-2998 colon) was 1.24 µM. The TGI (HCC-2998 colon) was 8.36 µM, the GI50 (HCT-116 colon) was 3.49 µM and the TGI (HCT-116 colon) was 17.4 µM. For the same compound, the GI50 (HCT-15 colon) was 1 µM, the TGI (HCT-15 colon) was 11.4 µM and the GI50 (HL-60(TB) leukemia) was 0.484 µM. The TGI (HL-60(TB) leukemia) was 15.1 µM, the GI50 (HOP-62 NSCLC) was 0.704 µM and the TGI (HOP-62 NSCLC) was 7.36 µM. It also gave a GI50 (HOP-92 NSCLC) of 0.595 µM, a TGI (HOP-92 NSCLC) of 6.68 µM and a GI50 (HS 578T breast) of 0.166 µM. The TGI (HS 578T breast) was 1.13 µM, the GI50 (HT29 colon) was 1.48 µM and the TGI (HT29 colon) was 16.8 µM. It also gave a GI50 (IGROV1 ovarian) of 0.194 µM, a TGI (IGROV1 ovarian) of 0.979 µM and a GI50 (K-562 leukemia) of 5.37 µM. The TGI (K-562 leukemia) was 68.8 µM, the GI50 (KM12 colon) was 3.02 µM and the TGI (KM12 colon) was 18.5 µM. For the same compound, the GI50 (LOX IMVI melanoma) was 1.05 µM, the TGI (LOX IMVI melanoma) was 4.09 µM and the GI50 (M14 melanoma) was 1.48 µM. For the same compound, the TGI (M14 melanoma) was 14.7 µM, the GI50 (MALME-3M melanoma) was 0.174 µM and the TGI (MALME-3M melanoma) was 1.55 µM. The GI50 (MCF7 breast) was 0.255 µM, the TGI (MCF7 breast) was 11.6 µM and the GI50 (MDA-MB-231 breast) was 1.51 µM. The TGI (MDA-MB-231 breast) was 4.29 µM, the GI50 (MDA-MB-435) was 1.72 µM and the TGI (MDA-MB-435) was 13 µM. For the same compound, the GI50 (MDA-MB-468 breast) was 0.211 µM, the TGI (MDA-MB-468 breast) was 1.38 µM and the GI50 (MOLT-4 leukemia) was 1.06 µM. It also gave a TGI (MOLT-4 leukemia) of 5 µM, a GI50 (NCI-H226 lung) of 0.672 µM and a TGI (NCI-H226 lung) of 7.43 µM. For the same compound, the GI50 (NCI-H23 lung) was 1.63 µM, the TGI (NCI-H23 lung) was 9.94 µM and the GI50 (NCI-H460 lung) was 0.922 µM. The TGI (NCI-H460 lung) was 13.1 µM, the GI50 (NCI-H522 lung) was 1.62 µM and the TGI (NCI-H522 lung) was 14.3 µM. It also gave a GI50 (NCI/ADR-RES ovarian) of 1.95 µM, a TGI (NCI/ADR-RES ovarian) of 15.3 µM and a GI50 (OVCAR-3 ovarian) of 0.83 µM. It also gave a TGI (OVCAR-3 ovarian) of 4.56 µM, a GI50 (OVCAR-4 ovarian) of 2.35 µM and a TGI (OVCAR-4 ovarian) of 21.1 µM. It also gave a GI50 (OVCAR-5 ovarian) of 1.87 µM, a TGI (OVCAR-5 ovarian) of 23.5 µM and a GI50 (OVCAR-8 ovarian) of 1.87 µM. It also gave a TGI (OVCAR-8 ovarian) of 20.5 µM, a GI50 (PC-3 prostate) of 1.03 µM and a TGI (PC-3 prostate) of 21 µM. The GI50 (RPMI-8226 leukemia) was 1.84 µM, the TGI (RPMI-8226 leukemia) was > 100 µM and the GI50 (RXF 393 renal) was 0.577 µM. It also gave a TGI (RXF 393 renal) of 3.17 µM, a GI50 (SF-268 CNS) of 1.65 µM and a TGI (SF-268 CNS) of 47.9 µM. The GI50 (SF-295 CNS) was 1.06 µM, the TGI (SF-295 CNS) was 5.28 µM and the GI50 (SF-539 CNS) was 1.56 µM. It also gave a TGI (SF-539 CNS) of 6.73 µM, a GI50 (SK-MEL-2 melanoma) of 1.73 µM and a TGI (SK-MEL-2 melanoma) of 5.8 µM. The GI50 (SK-MEL-28 melanoma) was 1.32 µM, the TGI (SK-MEL-28 melanoma) was 13.4 µM and the GI50 (SK-MEL-5 melanoma) was 0.85 µM. For the same compound, the TGI (SK-MEL-5 melanoma) was 2.61 µM, the GI50 (SK-OV-3 ovarian) was 0.444 µM and the TGI (SK-OV-3 ovarian) was 2.84 µM. The GI50 (SN12C renal) was 1.68 µM, the TGI (SN12C renal) was 36.5 µM and the GI50 (SNB-19 CNS) was 1.64 µM. The TGI (SNB-19 CNS) was 13.4 µM, the GI50 (SNB-75 CNS) was 0.254 µM and the TGI (SNB-75 CNS) was 3 µM. The GI50 (SR leukemia) was 1.52 µM, the TGI (SR leukemia) was 12.9 µM and the GI50 (SW-620 colon) was 2.51 µM. For the same compound, the TGI (SW-620 colon) was 17.4 µM, the GI50 (T-47D breast) was 0.141 µM and the TGI (T-47D breast) was 0.963 µM. The GI50 (TK-10 renal) was 0.644 µM, the TGI (TK-10 renal) was 9.62 µM and the GI50 (U251 CNS) was 2.36 µM. It also gave a TGI (U251 CNS) of 17.5 µM, a GI50 (UACC-257 melanoma) of 1.39 µM and a TGI (UACC-257 melanoma) of 11 µM. It also gave a GI50 (UACC-62 melanoma) of 0.382 µM, a TGI (UACC-62 melanoma) of 2.57 µM and a GI50 (UO-31 renal) of 0.252 µM. The TGI (UO-31 renal) was 4.05 µM.
